Assay results as given in PubChem BioAssay AID256 (DTP/NCI, 2004).
Inconclusive results and toxic doses are left out. How the source made its calls: active means survival T/C of 150% or more; inactive means T/C below 125% in these data.

Tested on: CD2F1 mice, L1210 leukemia ip, survival T/C
Assay: NCI In Vivo Anticancer Drug Screen. Data for tumor model L1210 Leukemia (intraperitoneal) in CD2F1 (CDF1) mice
Details: higher = longer survival
Outline: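 Each value reflects a quotient of treated over vehicle control outcomes in mice with a transplanted tumor.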

[1] = endpoint: mean survival time, dose: 100.0 mg/kg/injection, schedule: Q01DX009 (ip), vehicle: saline with Tween-80
[2] = endpoint: mean survival time, dose: 100.0 mg/kg/injection, schedule: Q04DX003 (ip), vehicle: saline with Tween-80
[3] = endpoint: mean survival time, dose: 200.0 mg/kg/injection, schedule: Q01DX009 (ip), vehicle: saline with Tween-80
[4] = endpoint: mean survival time, dose: 200.0 mg/kg/injection, schedule: Q04DX003 (ip), vehicle: saline with Tween-80
[5] = endpoint: mean survival time, dose: 400.0 mg/kg/injection, schedule: Q01DX009 (ip), vehicle: saline with Tween-80
[6] = endpoint: mean survival time, dose: 400.0 mg/kg/injection, schedule: Q04DX003 (ip), vehicle: saline with Tween-80
[7] = endpoint: mean survival time, dose: 75.0 mg/kg/injection, schedule: Q01DX001 (ip), vehicle: saline
[8] = endpoint: mean survival time, dose: 100.0 mg/kg/injection, schedule: Q04DX003 (ip), vehicle: saline
[9] = endpoint: mean survival time, dose: 150.0 mg/kg/injection, schedule: Q01DX001 (ip), vehicle: saline
[10] = endpoint: mean survival time, dose: 25.0 mg/kg/injection, schedule: Q04DX002 (ip), vehicle: saline with Tween-80
[11] = endpoint: mean survival time, dose: 50.0 mg/kg/injection, schedule: Q04DX002 (ip), vehicle: saline with Tween-80
[12] = endpoint: mean survival time, dose: 100.0 mg/kg/injection, schedule: Q04DX002 (ip), vehicle: saline with Tween-80
[13] = endpoint: mean survival time, dose: 100.0 mg/kg/injection, schedule: Q01DX001 (ip), vehicle: saline with Tween-80
[14] = endpoint: mean survival time, dose: 200.0 mg/kg/injection, schedule: Q01DX001 (ip), vehicle: saline with Tween-80
[15] = endpoint: mean survival time, dose: 400.0 mg/kg/injection, schedule: Q01DX001 (ip), vehicle: saline with Tween-80

Measured: T/C

CCCCCCCCCCCCCCCCCCNC(=O)Nc1ccc(CC)cc1
inactive: [1] 98 % of control | [2] 94 % of control | [3] 109 % of control | [4] 89 % of control | [5] 110 % of control | [6] 93 % of control

CC1(C)CCOC(CC(=O)OCc2ccccc2)=N1
inactive: [1] 96 % of control | [2] 93 % of control | [3] 96 % of control | [4] 92 % of control | [5] 95 % of control | [6] 88 % of control

Oc1ccc(C(c2ccc(O)cc2)C(Cl)(Cl)Cl)cc1
inactive: endpoint: mean survival time, dose: 100.0 mg/kg/injection, schedule: Q04DX003 (ip), vehicle: Klucel (hydroxypropylcellulose) (HPC) 101 % of control | endpoint: mean survival time, dose: 200.0 mg/kg/injection, schedule: Q04DX003 (ip), vehicle: Klucel (hydroxypropylcellulose) (HPC) 101 % of control | endpoint: mean survival time, dose: 400.0 mg/kg/injection, schedule: Q04DX003 (ip), vehicle: Klucel (hydroxypropylcellulose) (HPC) 93 % of control

NC(N)=NC(N)=Nc1cnccn1
inactive: endpoint: mean survival time, dose: 25.0 mg/kg/injection, schedule: Q01DX009 (ip), vehicle: saline sonified 91 % of control | endpoint: mean survival time, dose: 25.0 mg/kg/injection, schedule: Q04DX003 (ip), vehicle: saline 104 % of control | endpoint: mean survival time, dose: 50.0 mg/kg/injection, schedule: Q01DX009 (ip), vehicle: saline sonified 97 % of control | endpoint: mean survival time, dose: 50.0 mg/kg/injection, schedule: Q04DX003 (ip), vehicle: saline 98 % of control | [7] 95 % of control | endpoint: mean survival time, dose: 100.0 mg/kg/injection, schedule: Q01DX009 (ip), vehicle: saline sonified 95 % of control | [8] 104 % of control | [9] 93 % of control

C/C=C(\C(=C\C)c1ccc(OC(=O)c2ccccc2)c(C2CCCCC2)c1)c1ccc(O)c(C2CCCCC2)c1
inactive: [7] 95 % of control | [9] 95 % of control | endpoint: mean survival time, dose: 300.0 mg/kg/injection, schedule: Q01DX001 (ip), vehicle: saline 103 % of control

CCN(CC)c1ncnc2nncnc12
inactive: endpoint: mean survival time, dose: 100.0 mg/kg/injection, schedule: Q01DX001 (ip), vehicle: carboxymethylcellulose (CMC) 101 % of control | endpoint: mean survival time, dose: 200.0 mg/kg/injection, schedule: Q01DX001 (ip), vehicle: carboxymethylcellulose (CMC) 96 % of control

C=CCNC(N)=O
inactive: [8] 94 % of control | endpoint: mean survival time, dose: 200.0 mg/kg/injection, schedule: Q04DX003 (ip), vehicle: saline 93 % of control

CSc1nc(=O)n(C2OC(CO)C(O)C2O)nc1SCc1ccccc1 (stereo not drawn)
inactive: endpoint: mean survival time, dose: 12.5 mg/kg/injection, schedule: Q01DX005 (ip), vehicle: distilled water + Tween-80 94 % of control | endpoint: mean survival time, dose: 25.0 mg/kg/injection, schedule: Q01DX005 (ip), vehicle: distilled water + Tween-80 94 % of control | endpoint: mean survival time, dose: 50.0 mg/kg/injection, schedule: Q01DX005 (ip), vehicle: distilled water + Tween-80 92 % of control

Cc1ccc(S(=O)(=O)NN2C(=O)c3ccccc3C2=O)cc1
inactive: [10] 96 % of control | [11] 96 % of control | [12] 100 % of control | endpoint: mean survival time, dose: 200.0 mg/kg/injection, schedule: Q04DX002 (ip), vehicle: saline with Tween-80 96 % of control

COc1ccc(OC)c(NC(=O)NCc2ccccc2Cl)c1
inactive: [1] 90 % of control | [3] 100 % of control | [5] 87 % of control

Nc1n[nH]c(=S)n1-c1ccc(Cl)cc1
inactive: endpoint: mean survival time, dose: 100.0 mg/kg/injection, schedule: Q01DX009 (ip), vehicle: acetone 97 % of control | endpoint: mean survival time, dose: 200.0 mg/kg/injection, schedule: Q01DX009 (ip), vehicle: acetone 101 % of control | endpoint: mean survival time, dose: 400.0 mg/kg/injection, schedule: Q01DX009 (ip), vehicle: acetone 106 % of control

CO[C@]12[C@@H](COC(N)=O)C3=C(C(=O)C(C)=C(NCC4CCCO4)C3=O)N1C[C@@H]1[C@H]2N1C (stereo partly drawn)
inactive: endpoint: mean survival time, dose: 1.5 mg/kg/injection, schedule: Q01DX001 (ip), vehicle: saline with Tween-80 102 % of control | endpoint: mean survival time, dose: 3.0 mg/kg/injection, schedule: Q01DX001 (ip), vehicle: saline with Tween-80 98 % of control | endpoint: mean survival time, dose: 6.0 mg/kg/injection, schedule: Q01DX001 (ip), vehicle: saline with Tween-80 104 % of control | endpoint: mean survival time, dose: 12.0 mg/kg/injection, schedule: Q01DX001 (ip), vehicle: saline with Tween-80 104 % of control | endpoint: mean survival time, dose: 24.0 mg/kg/injection, schedule: Q01DX001 (ip), vehicle: distilled water + Tween-80 114 % of control | endpoint: mean survival time, dose: 24.0 mg/kg/injection, schedule: Q01DX001 (ip), vehicle: saline with Tween-80 116 % of control | endpoint: mean survival time, dose: 25.0 mg/kg/injection, schedule: Q01DX001 (ip), vehicle: distilled water + Tween-80 121 % of control | endpoint: mean survival time, dose: 48.0 mg/kg/injection, schedule: Q01DX001 (ip), vehicle: distilled water + Tween-80 124 % of control | endpoint: mean survival time, dose: 100.0 mg/kg/injection, schedule: Q01DX001 (ip), vehicle: distilled water + Tween-80 113 % of control

O=C(OCC(I)CC(F)(F)C(F)(F)F)c1ccc2cc(C(=O)OC(I)CC(F)(F)C(F)(F)F)ccc2c1 (stereo not drawn)
inactive: endpoint: mean survival time, dose: 75.0 mg/kg/injection, schedule: Q01DX001 (ip), vehicle: other 101 % of control | endpoint: mean survival time, dose: 150.0 mg/kg/injection, schedule: Q01DX001 (ip), vehicle: other 91 % of control | endpoint: mean survival time, dose: 300.0 mg/kg/injection, schedule: Q01DX001 (ip), vehicle: other 97 % of control

CCN(CC)CCCC(C)Nc1ccnc2cc(Cl)ccc12 (stereo not drawn)
inactive: endpoint: mean survival time, dose: 100.0 mg/kg/injection, schedule: Q04DX002 (ip), vehicle: saline 91 % of control

S=C(Nc1ccccc1)Nc1ccccn1
inactive: [13] 97 % of control | [14] 105 % of control | [15] 109 % of control

Cc1ccc2c(c1)C(=NCCCN=C1C(=O)Nc3ccc(C)cc31)C(=O)N2
inactive: [13] 103 % of control | [14] 95 % of control | [15] 98 % of control

Cc1cc2c(C(C)C)c(O)c(O)c(C=O)c2c(O)c1-c1c(C)cc2c(C(C)C)c(O)c(O)c(C=O)c2c1O
inactive: endpoint: median survival time, dose: 6.25 mg/kg/injection, schedule: Q01DX009 (ip), vehicle: saline with Tween-80 110 % of control | endpoint: median survival time, dose: 12.5 mg/kg/injection, schedule: Q01DX009 (ip), vehicle: saline with Tween-80 101 % of control

CC1(C)CC(=O)C2=C(C1)OC1=C(C(=O)CC(C)(C)C1)C2c1ccccc1Cl
inactive: [2] 102 % of control | [4] 100 % of control | [6] 104 % of control

CCC(=O)C(=O)c1ccccc1
inactive: endpoint: mean survival time, dose: 100.0 mg/kg/injection, schedule: Q01DX001 (ip), vehicle: saline 101 % of control | endpoint: mean survival time, dose: 200.0 mg/kg/injection, schedule: Q01DX001 (ip), vehicle: saline 98 % of control | endpoint: mean survival time, dose: 400.0 mg/kg/injection, schedule: Q01DX001 (ip), vehicle: saline 101 % of control

O=c1c2nc(-c3ccccc3)oc2ncn1C1OC(CO)C(O)C1O (stereo not drawn)
inactive: endpoint: mean survival time, dose: 100.0 mg/kg/injection, schedule: Q01DX005 (ip), vehicle: saline 100 % of control | endpoint: mean survival time, dose: 200.0 mg/kg/injection, schedule: Q01DX005 (ip), vehicle: saline 98 % of control

CSc1nc(NC2OCC(O)C(O)C2O)cc(=O)n1C (stereo not drawn)
inactive: endpoint: median survival time, dose: 12.5 mg/kg/injection, schedule: Q01DX005 (ip), vehicle: saline 98 % of control | endpoint: median survival time, dose: 25.0 mg/kg/injection, schedule: Q01DX005 (ip), vehicle: saline 102 % of control | endpoint: median survival time, dose: 50.0 mg/kg/injection, schedule: Q01DX005 (ip), vehicle: saline 102 % of control | endpoint: median survival time, dose: 100.0 mg/kg/injection, schedule: Q01DX005 (ip), vehicle: saline 105 % of control | endpoint: median survival time, dose: 200.0 mg/kg/injection, schedule: Q01DX005 (ip), vehicle: saline 100 % of control

C/C=C/C(O)C(O)/C=C/C (stereo not drawn)
inactive: [13] 94 % of control | [14] 97 % of control | [15] 97 % of control

N=C(N)N1CCc2ccccc2C1
inactive: endpoint: mean survival time, dose: 18.8 mg/kg/injection, schedule: Q01DX009 (ip), vehicle: saline 103 % of control | endpoint: mean survival time, dose: 37.5 mg/kg/injection, schedule: Q01DX009 (ip), vehicle: saline 98 % of control | [7] 97 % of control | endpoint: mean survival time, dose: 75.0 mg/kg/injection, schedule: Q01DX009 (ip), vehicle: saline 103 % of control

CCCCCCCCCCCc1cc(=O)n(-c2cc(Cl)ccc2Cl)n1C
inactive: [10] 96 % of control | [11] 88 % of control | [12] 86 % of control

Cc1cc(N2CCC(N3CCCC3)CC2)nc(/N=C(\N)Nc2ccc(Cl)c(Cl)c2)n1
inactive: endpoint: mean survival time, dose: 12.5 mg/kg/injection, schedule: Q04DX003 (ip), vehicle: saline with Tween-80 98 % of control | endpoint: mean survival time, dose: 25.0 mg/kg/injection, schedule: Q04DX003 (ip), vehicle: saline with Tween-80 101 % of control | endpoint: mean survival time, dose: 50.0 mg/kg/injection, schedule: Q04DX003 (ip), vehicle: saline with Tween-80 86 % of control

CCCCOc1ccccc1NC(=O)CCl
inactive: [1] 97 % of control | [3] 92 % of control | [5] 95 % of control
